Values quoted from earlier work as cited in paper PMC6545338, “Novel chemical starting points for drug discovery in leishmaniasis and Chagas disease” (International Journal for Parasitology: Drugs and Drug …, 2019).

Tested on: T. cruzi
Parameters: method as in Morillo et al., 2017a
Conditions: ref Morillo et al., 2017a; for Efficacy in the STOP-CHAGAS trial: patients

| SMILES | Patients who had to permanently discontinue treatment due to side effects (benznidazole-treated group) [%] | Efficacy in the STOP-CHAGAS trial [%] |
| --- | --- | --- |
| O=C(Cn1ccnc1[N+](=O)[O-])NCc1ccccc1 [benznidazole] | 32 | 62 |
| CC[C@@H]([C@H](C)O)n1ncn(-c2ccc(N3CCN(c4ccc(OC[C@@H]5CO[C@@](Cn6cncn6)(c6ccc(F)cc6F)C5)cc4)CC3)cc2)c1=O [posaconazole] |  | 19 |
